Data reported in patent US7964633B2, “Sulfonamide derivatives” (Hoffmann-La Roche Inc., priority 2006, dated 2011).

Tests used:
[1] = target: T1, human liver FBPase (Homo sapiens, UniProt P09467); test: FBPase assay (malachite green phosphate release); type: biochemical; conditions: recombinant human liver FBPase, 50 μM fructose-1,6-bisphosphate, pH 7.2, 50 minutes at room temperature
T1 construct: host or cells: E. coli
T1 sequence (P09467 2-338 limits assumed): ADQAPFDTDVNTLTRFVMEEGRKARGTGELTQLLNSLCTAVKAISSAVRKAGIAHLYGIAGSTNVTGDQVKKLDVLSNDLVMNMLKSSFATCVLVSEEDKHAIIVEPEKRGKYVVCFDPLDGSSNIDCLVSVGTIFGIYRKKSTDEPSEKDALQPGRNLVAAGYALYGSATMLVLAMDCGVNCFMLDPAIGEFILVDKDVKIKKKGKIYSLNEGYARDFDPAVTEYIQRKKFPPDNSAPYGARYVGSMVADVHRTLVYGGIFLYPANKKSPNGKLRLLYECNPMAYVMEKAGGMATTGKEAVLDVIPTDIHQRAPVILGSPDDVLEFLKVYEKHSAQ
Protocol: The following tests were carried out for evaluating the inhibitory activity of the compounds of the present invention against human liver FBPase (Swissprot Data base reference PO9467, entry F16P_HUMAN).
Enzyme preparation: Human liver FBPase cDNA (NM_000507) was purchased from Origene Technologies, Inc, subcloned in a vector for expression in E. Coli., and sequenced. Recombinant human liver FBPase (hIFBPase) was purified according to the following protocol that uses heat denaturation similarly to that described by El-Maghrabi et. al. [El-Maghrabi, M. R. et al. “Isolation of a human liver fructose-1,6-bisphosphatase cDNA and expression of the protein in Escherichia coli.” J Biol Chem 268:9466-9472, 1993.]. […] Purity of the enzyme preparation was >90% as assessed by Mass spectrometry.
In vitro activity: Recombinant human liver FBPase (hIFBPase) activity was assayed through measuring the inorganic phosphate release that results from the hydrolysis of Fructose-1,6-bisphosphate by the enzyme. […] Anal. Biochem., 171:266-270, 1988], inorganic phosphate can be readily quantified by spectrophotometry at 620 nm after complexation with ammonium molybdate/malachite green reagent. […] Under these conditions, the assay was linear with time and able to detect FBPase inhibition after spectrophotometric read-out at 620 nm.

Compound `O=C(NCCSSCCNC(=O)NS(=O)(=O)c1cccc(Cl)c1)NS(=O)(=O)c1cccc(Cl)c1` [Example 3, N,N′-[dithiobis(ethane-2,1-diyliminocarbonyl)]bis(3-chlorobenzenesulfonamide)] has a melting point of 165 to 167 °C.
Compound `O=C(NCCCCCCNC(=O)NS(=O)(=O)c1cccc(Cl)c1)NS(=O)(=O)c1cccc(Cl)c1` [Example 1] has an IC50 [1] of 17 nM.
With `Cc1cccc(S(=O)(=O)NC(=O)NCCCCCCNC(=O)NS(=O)(=O)c2cccc(C)c2)c1` [Example 8, N,N′-[hexane-1,6-diylbis(iminocarbonyl)]bis(3-methylbenzenesulfonamide)] the IC50 [1] was 22 nM.
